From article PMC10409773, “Structure, catalysis, chitin transport, and selective inhibition of chitin synthase” (Nature Communications, 2023)

Tests used:
Chs1 (chitin synthase 1) = biological target: T1, Chs1 (chitin synthase 1) (Saccharomyces cerevisiae, UniProt P08004); assay: cryo-EM structure at […] Å with UDP-GlcNAc (also with UDP, 8K3U); assay type: binding
T1 construct: Chs1 (1131 residues) with C-terminal triple-FLAG; N-terminal ~374 residues largely disordered; homodimer
T1 sequence (P08004 1-1131): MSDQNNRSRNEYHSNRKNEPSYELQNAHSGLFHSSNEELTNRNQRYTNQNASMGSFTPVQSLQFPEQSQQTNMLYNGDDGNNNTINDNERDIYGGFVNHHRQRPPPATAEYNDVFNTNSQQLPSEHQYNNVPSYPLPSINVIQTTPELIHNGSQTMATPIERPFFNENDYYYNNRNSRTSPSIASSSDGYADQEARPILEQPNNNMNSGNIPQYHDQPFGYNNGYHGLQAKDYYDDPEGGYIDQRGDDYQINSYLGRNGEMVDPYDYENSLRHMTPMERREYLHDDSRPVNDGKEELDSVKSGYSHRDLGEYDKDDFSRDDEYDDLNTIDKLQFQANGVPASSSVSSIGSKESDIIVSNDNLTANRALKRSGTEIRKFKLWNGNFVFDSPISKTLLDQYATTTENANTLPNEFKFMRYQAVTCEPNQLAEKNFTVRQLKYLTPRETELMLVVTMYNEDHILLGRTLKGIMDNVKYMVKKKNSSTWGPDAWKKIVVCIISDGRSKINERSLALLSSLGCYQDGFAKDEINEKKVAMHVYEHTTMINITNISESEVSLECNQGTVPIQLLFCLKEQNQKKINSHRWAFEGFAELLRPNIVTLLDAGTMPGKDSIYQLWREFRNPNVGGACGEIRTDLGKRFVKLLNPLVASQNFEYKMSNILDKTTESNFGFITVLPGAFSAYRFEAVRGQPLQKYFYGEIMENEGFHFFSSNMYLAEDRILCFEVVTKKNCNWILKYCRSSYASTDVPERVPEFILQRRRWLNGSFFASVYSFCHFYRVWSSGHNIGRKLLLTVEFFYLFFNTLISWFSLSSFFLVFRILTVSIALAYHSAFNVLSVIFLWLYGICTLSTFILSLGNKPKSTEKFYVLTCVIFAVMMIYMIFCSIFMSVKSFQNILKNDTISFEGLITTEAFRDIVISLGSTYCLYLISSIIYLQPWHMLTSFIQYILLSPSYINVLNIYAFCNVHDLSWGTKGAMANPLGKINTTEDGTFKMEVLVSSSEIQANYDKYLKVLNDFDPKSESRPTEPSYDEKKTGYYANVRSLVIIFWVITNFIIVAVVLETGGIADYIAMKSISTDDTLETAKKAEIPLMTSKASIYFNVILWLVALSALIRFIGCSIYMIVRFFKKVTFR

[1] = biological target: the molecule itself; assay: cryo-EM structure; single-particle cryo-EM of purified Chs1 (~3 mg/mL) in LMNG/GDN/CHS, alone or with 5 mM UDP-GlcNAc, GlcNAc, UDP, Nikkomycin Z or Polyoxin B on ice; maps refined with C2 symmetry

Row | Molecule | cryo-EM structure at 2.9 Å with UDP-GlcNAc (also with UDP, 8K3U) (Chs1 (chitin synthase 1)) | stoichiometry N [1]
1 | CC(=O)N[C@H]1C(O)O[C@H](CO)[C@@H](O)[C@@H]1O (some centres unmarked) [GlcNAc] | The GlcNAc ring is vertically inserted into a slit between the indole ring of W760 and the pyrrolidine ring | 
2 | Saccharomyces cerevisiae chitin synthase 1 (Chs1), wild type, C-terminal triple FLAG (enzyme, S. cerevisiae, Chitin synthase 1 (Chs1), S. cerevisiae, UniProt P08004; the first 374 residues (except 245-271) are not seen in the maps; the purified sample was partly digested in the N-terminal region by endogenous protease (a smaller species lacks about the N-terminal 150 residues); also called ScChs1; scChs1) MSDQNNRSRNEYHSNRKNEPSYELQNAHSGLFHSSNEELTNRNQRYTNQNASMGSFTPVQSLQFPEQSQQTNMLYNGDDGNNNTINDNERDIYGGFVNHHRQRPPPATAEYNDVFNTNSQQLPSEHQYNNVPSYPLPSINVIQTTPELIHNGSQTMATPIERPFFNENDYYYNNRNSRTSPSIASSSDGYADQEARPILEQPNNNMNSGNIPQYHDQPFGYNNGYHGLQAKDYYDDPEGGYIDQRGDDYQINSYLGRNGEMVDPYDYENSLRHMTPMERREYLHDDSRPVNDGKEELDSVKSGYSHRDLGEYDKDDFSRDDEYDDLNTIDKLQFQANGVPASSSVSSIGSKESDIIVSNDNLTANRALKRSGTEIRKFKLWNGNFVFDSPISKTLLDQYATTTENANTLPNEFKFMRYQAVTCEPNQLAEKNFTVRQLKYLTPRETELMLVVTMYNEDHILLGRTLKGIMDNVKYMVKKKNSSTWGPDAWKKIVVCIISDGRSKINERSLALLSSLGCYQDGFAKDEINEKKVAMHVYEHTTMINITNISESEVSLECNQGTVPIQLLFCLKEQNQKKINSHRWAFEGFAELLRPNIVTLLDAGTMPGKDSIYQLWREFRNPNVGGACGEIRTDLGKRFVKLLNPLVASQNFEYKMSNILDKTTESNFGFITVLPGAFSAYRFEAVRGQPLQKYFYGEIMENEGFHFFSSNMYLAEDRILCFEVVTKKNCNWILKYCRSSYASTDVPERVPEFILQRRRWLNGSFFASVYSFCHFYRVWSSGHNIGRKLLLTVEFFYLFFNTLISWFSLSSFFLVFRILTVSIALAYHSAFNVLSVIFLWLYGICTLSTFILSLGNKPKSTEKFYVLTCVIFAVMMIYMIFCSIFMSVKSFQNILKNDTISFEGLITTEAFRDIVISLGSTYCLYLISSIIYLQPWHMLTSFIQYILLSPSYINVLNIYAFCNVHDLSWGTKGAMANPLGKINTTEDGTFKMEVLVSSSEIQANYDKYLKVLNDFDPKSESRPTEPSYDEKKTGYYANVRSLVIIFWVITNFIIVAVVLETGGIADYIAMKSISTDDTLETAKKAEIPLMTSKASIYFNVILWLVALSALIRFIGCSIYMIVRFFKKVTFR |  | 2
